Molecular target: T1, SETD2(1434-1711) (Homo sapiens, UniProt Q9BYW2)
T1 construct: SETD2 (1434-1711) Assay; catalogue N/A
T1 sequence (Q9BYW2 1434-1711): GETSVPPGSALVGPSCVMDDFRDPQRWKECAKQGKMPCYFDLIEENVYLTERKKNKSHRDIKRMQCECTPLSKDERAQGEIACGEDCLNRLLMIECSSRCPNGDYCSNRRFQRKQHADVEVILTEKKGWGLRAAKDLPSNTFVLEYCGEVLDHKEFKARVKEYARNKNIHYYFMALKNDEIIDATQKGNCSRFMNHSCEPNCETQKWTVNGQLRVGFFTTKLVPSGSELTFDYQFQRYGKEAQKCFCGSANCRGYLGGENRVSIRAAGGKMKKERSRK
Test: SETD2 (1434-1711) assay
Assay type: biochemical
Details: read-out: SETD2 (1434-1711)

IC50 [µM] | Compound
27.4 | COC(=O)CC(NC(=O)c1cc2cccc(C)c2[nH]1)c1cccc(OC)c1 (stereo not drawn) [compound 659]
27.9 | Cc1cccc2cc(C(=O)NC(c3ccccn3)C3CC3)[nH]c12 (stereo not drawn) [compound 660]
28.7 | Cc1cccc2cc(C(=O)N[C@H]3CC[C@H](NS(=O)(=O)CCN)CC3)[nH]c12 [compound 661]
29.7 | Cc1cccc2cc(C(=O)N[C@H]3CC[C@@H](CO)CC3)[nH]c12 [compound 662]
31.5 | Cc1cccc2cc(C(=O)NC3CCN(S(=O)(=O)CCCN)CC3)[nH]c12 [compound 663]
31.7 | Cc1cccc2cc(C(=O)NC3CCCN(C(=O)CCCN)C3)[nH]c12 (stereo not drawn) [compound 664]
32.7 | Cc1cccc2cc(C(=O)Nc3cncnc3)[nH]c12 [compound 665]
> 33 | COC(=O)C[C@@H](NC(=O)c1cc2cccc(C)c2[nH]1)c1ccccc1 [compound 666]
34.5 | Cc1cccc2cc(C(=O)NC(c3cccc(CC(N)=O)n3)C3CC3)[nH]c12 (stereo not drawn) [compound 667]
34.5 | CCC(NC(=O)c1cc2cccc(C)c2[nH]1)c1nc(C)no1 (stereo not drawn) [compound 668]
35.2 | COC(=O)CC(NC(=O)c1cc2cccc(C)c2[nH]1)c1cccc(Br)c1 (stereo not drawn) [compound 669]
35.4 | CC(=O)N1CCC(NC(=O)c2cc3cccc(C)c3[nH]2)CC1 [compound 670]
35.4 | COC(=O)CC(NC(=O)c1cc2cccc(C)c2[nH]1)c1cccnc1 (stereo not drawn) [compound 671]
35.9 | Cc1cccc2cc(C(=O)N[C@@H]3C[C@H]4CC[C@@H]3CN4C(=O)CCN)[nH]c12 [compound 672]
36 | Cc1cccc2cc(C(=O)Nc3ccccn3)[nH]c12 [compound 673]
37 | Cc1cccc2cc(C(=O)NCc3cccc(CN4CCCC4)c3)[nH]c12 [compound 674]
37.7 | CCOC(=O)C(NC(=O)c1cc2cccc(C)c2[nH]1)C(F)(F)F (stereo not drawn) [compound 675]
38.1 | COC(=O)C[C@H](NC(=O)c1cc2cccc(C)c2[nH]1)c1cccnc1 [compound 676]
39.5 | COC(=O)CC(NC(=O)c1cc2cccc(C)c2[nH]1)c1ccccc1C (stereo not drawn) [compound 677]
39.7 | Cc1cccc2cc(C(=O)NCC(O)C(F)(F)F)[nH]c12 (stereo not drawn) [compound 678]
43.1 | Cc1cccc2cc(C(=O)Nc3ccccc3C3CCC(=O)N3)[nH]c12 (stereo not drawn) [compound 679]
44.8 | Cc1cccc2cc(C(=O)NC(c3ncccn3)C3CC3)[nH]c12 (stereo not drawn) [compound 680]

IC50 [µM] | Compound
45 | COc1cc(OC)cc(C(O)CNC(=O)c2cc3cccc(C)c3[nH]2)c1 (stereo not drawn) [compound 681]
45.4 | CNC(=O)CC(NC(=O)c1cc2cccc(C)c2[nH]1)c1ncccc1C (stereo not drawn) [compound 682]
48.2 | COC(=O)C[C@H](NC(=O)c1cc2cccc(C)c2[nH]1)c1ccc(Cl)cc1 [compound 683]
> 50 | Cc1cccc2cc(C(=O)N3CCc4ccccc4C3)[nH]c12 [compound 684]
50.5 | Cc1cccc2cc(C(=O)NC3C4CCC3CC(NC(=O)CCN)C4)[nH]c12 (stereo not drawn) [compound 685]
51.3 | Cc1ccccc1C(O)CNC(=O)c1cc2cccc(C)c2[nH]1 (stereo not drawn) [compound 686]
51.6 | Cc1cccc2cc(C(=O)N[C@@H](c3ccccc3)C(F)(F)F)[nH]c12 [compound 687]
52.1 | Cc1csc(C(C)NC(=O)c2cc3cccc(C)c3[nH]2)n1 (stereo not drawn) [compound 688]
53.3 | Cc1cccc2cc(C(=O)NC(c3cccnc3)C3CC3)[nH]c12 (stereo not drawn) [compound 689]
55.8 | COC(=O)C[C@H](NC(=O)c1cc2cccc(C)c2[nH]1)c1ccccc1 [compound 690]
56.2 | Cc1cccc2cc(C(=O)Nc3ccc(CN4CCOCC4)cc3)[nH]c12 [compound 691]
56.9 | Cc1cccc2cc(C(=O)N[C@@H](CO)Cc3ccccc3)[nH]c12 [compound 692]
58.9 | Cc1cccc2cc(C(=O)NCc3ccnn3C)[nH]c12 [compound 693]
62.1 | COC(=O)C[C@@H](NC(=O)c1cc2cccc(C)c2[nH]1)C(=O)OC [compound 694]
62.1 | COc1cccc(C(O)CNC(=O)c2cc3cccc(C)c3[nH]2)c1 (stereo not drawn) [compound 695]
62.8 | NCCC(=O)N[C@H]1CC[C@H](NC(=O)c2cc3cccc(Cl)c3[nH]2)CC1 [compound 697]
63 | CC(=O)N[C@H]1CC[C@H](NC(=O)c2cc3cccc(C)c3[nH]2)CC1 [compound 698]
66.7 | Cc1cccc2cc(C(=O)NC3Cc4ccccc4NC3=O)[nH]c12 (stereo not drawn) [compound 699]
68.9 | CCOC(=O)CC(NC(=O)c1cc2cccc(C)c2[nH]1)c1ccncc1 (stereo not drawn) [compound 700]
69.2 | COC(=O)C(NC(=O)c1cc2cccc(C)c2[nH]1)c1ccccc1 (stereo not drawn) [compound 701]
69.6 | Cc1oncc1CNC(=O)c1cc2cccc(C)c2[nH]1 [compound 702]
70.7 | Cc1cccc2cc(C(=O)N[C@H](CO)c3ccccc3)[nH]c12 [compound 703]

IC50 [µM] | Compound
70.9 | Cc1cccc2cc(C(=O)NC3CCC(=O)Nc4ccccc43)[nH]c12 (stereo not drawn) [compound 704]
71.6 | Cc1cccc2cc(C(=O)NC(CO)c3ccccc3)[nH]c12 (stereo not drawn) [compound 705]
71.9 | NC1CCC(NC(=O)c2cc3cccc(Br)c3[nH]2)CC1 (stereo not drawn) [compound 706]
72 | COC(=O)CC(NC(=O)c1cc2cccc(C)c2[nH]1)c1cccc(F)c1 (stereo not drawn) [compound 707]
74 | COC(=O)C[C@H](NC(=O)c1cc2cccc(C)c2[nH]1)C(=O)OC [compound 708]
78.4 | Cc1cccc2cc(C(=O)NCc3cccc(CN4CCOCC4)c3)[nH]c12 [compound 709]
83.4 | Cc1cccc2cc(C(=O)NCc3cn4ccnc4cn3)[nH]c12 [compound 710]
85.9 | CCc1c(C(=O)N[C@H]2CC[C@H](NC(=O)CCN)CC2)[nH]c2c(C)cccc12 [compound 711]
86.4 | Cc1cccc2cc(C(=O)NC(C)c3ccn(C)n3)[nH]c12 (stereo not drawn) [compound 712]
91.2 | Cc1cccc([C@@H](C)NC(=O)c2cc3cccc(C)c3[nH]2)c1 [compound 713]
98.9 | Cc1cccc2cc(C(=O)NC(C)c3cccc4ccccc34)[nH]c12 (stereo not drawn) [compound 714]
98.9 | Cc1cccc2cc(C(=O)NC3CCNCC3)[nH]c12 [compound 715]
> 100 | Cc1cccc2cc(C(=O)NCc3ccccc3N3CCCCC3)[nH]c12 [compound 716]
> 100 | Cc1cccnc1C(NC(=O)c1cc2cccc(C(F)(F)F)c2[nH]1)C1CC1 (stereo not drawn) [compound 717]
103 | Cc1cccc2cc(C(=O)N3CCCc4ccccc4C3)[nH]c12 [compound 718]
107 | Cc1cc(CNC(=O)c2cc3cccc(C)c3[nH]2)no1 [compound 719]
109 | Cc1cccc2cc(C(=O)NCC(O)c3c(F)cccc3F)[nH]c12 (stereo not drawn) [compound 720]
113 | Cc1nc(CNC(=O)c2cc3cccc(C)c3[nH]2)c(C)o1 [compound 721]
116 | Cc1cccnc1C(NC(=O)c1cc2cccc(C)c2[nH]1)C1CCNC1 (stereo not drawn) [compound 722]
116 | Cc1cnc(CNC(=O)c2cc3cccc(C)c3[nH]2)cn1 [compound 723]
117 | Cc1cccc2cc(C(=O)Nc3cc(CN4CCOCC4)ccn3)[nH]c12 [compound 724]
123 | Cc1cccc2cc(C(=O)NC(CCN(C)C)c3cccnc3)[nH]c12 (stereo not drawn) [compound 725]

IC50 [µM] | Compound
124 | Cc1cccc2cc(C(=O)N[C@H](c3ccccc3)C(F)(F)F)[nH]c12 [compound 726]
125 | Cc1cccc2cc(C(=O)NC(c3cncc(CN(C)C)c3)C3CC3)[nH]c12 (stereo not drawn) [compound 727]
127 | Cc1cccnc1C(CCN(C)C)NC(=O)c1cc2cccc(C)c2[nH]1 (stereo not drawn) [compound 728]
129 | Cc1cccc2cc(C(=O)NCc3cnc[nH]3)[nH]c12 [compound 729]
> 130 | Cc1ccc(C)c2[nH]c(C(=O)N[C@H]3CC[C@H](N)CC3)cc12 [compound 730]
137 | Cc1cccc2cc(C(=O)NCC(O)C3CC3)[nH]c12 (stereo not drawn) [compound 731]
137 | Cc1nonc1CNC(=O)c1cc2cccc(C)c2[nH]1 [compound 732]
147 | Cc1cccc2cc(C(=O)NCc3cocn3)[nH]c12 [compound 733]
165 | Cc1noc(C(C)NC(=O)c2cc3cccc(C)c3[nH]2)n1 (stereo not drawn) [compound 735]
168 | Cc1c(C(=O)N[C@H]2CC[C@H](N)CC2)[nH]c2c(C)cccc12 [compound 736]
179 | Cc1cc(C)c2[nH]c(C(=O)N[C@H]3CC[C@H](NC(=O)CCN)CC3)cc2c1 [compound 738]
> 200 | Cc1cccc2cc(C(=O)NCCN3CCOCC3)[nH]c12 [compound 746]
> 200 | Cc1cccc2cc(C(=O)NCC3CCCO3)[nH]c12 (stereo not drawn) [compound 747]
> 200 | Cc1cccc2cc(C(=O)NC3CCc4ccccc43)[nH]c12 (stereo not drawn) [compound 748]
> 200 | Cc1cccc2cc(C(=O)NC(C)c3ccccc3)[nH]c12 (stereo not drawn) [compound 749]
> 200 | Cc1cccc2cc(C(=O)NCc3cccc(N4CCCCC4)c3)[nH]c12 [compound 750]
> 200 | Cc1cccc2cc(C(=O)NCc3cccc(S(=O)(=O)N4CCCCC4)c3)[nH]c12 [compound 751]
> 200 | Cc1cccc2cc(C(=O)NC3CCN(Cc4ccccc4)CC3)[nH]c12 [compound 752]
> 200 | Cc1cccc2cc(C(=O)NC3CCCc4ccccc43)[nH]c12 (stereo not drawn) [compound 753]
> 200 | COc1ccc(C(O)CNC(=O)c2cc3cccc(C)c3[nH]2)cc1 (stereo not drawn) [compound 754]
> 200 | Cc1cccc2cc(C(=O)NCc3ccc(CN4CCOCC4)cc3)[nH]c12 [compound 755]
